# In patent US10975069B2, “Sigma-2 receptor ligand drug conjugates as antitumor compounds, methods of synthesis and uses thereof” (priority 2014, dated 2021):
# Test system: SYO-1 Synovial sarcoma (SS) xenografts
# Experiment: SYO-1 synovial sarcoma xenograft
# Format: in vivo, athymic nude mice
# Details: 300 nmoles for 14 days; FIG. 14E
# Experimental: SYO-1 Synovial sarcoma (SS) xenografts were also treated with 300 nmoles SW V-49. […] FIG. 14E depicts athymic nude mice xenograft of SS cell line SYO-1 treated with SW V-49 (300 nmoles) for 14 days and then followed, p<0.0001. SYO xenografts required a smaller dose of SW V-49 to achieve results similar to those achieved against PDAC.
compound,measurement,value
CCOc1ccccc1-n1c(CN2CCN(C(=O)COc3ccc(CNCCCCCCN4C5CCCC4CC(OC(=O)Nc4cc(C)ccc4OC)C5)cc3)CC2)nc2ccccc2c1=O.O=C(O)C(=O)O (stereo not shown) [SW V-49s],tumor growth,Growth inhibition
